Test results from patent US12122821B2, “Regulation of glucose metabolism using anti-CGRP antibodies” (H. LUNDBECK A/S, priority 2013, dated 2024).
Entries after “also recorded” stand apart in the source; their conditions may differ.

Columns and labels:
HFD rats = assay: Body weight and food intake in high fat/high fructose diet (HFD) rats (Example 2); format: in vivo, rat; conditions: vs HFD vehicle
Procedure: After 6 weeks of HFD rats were randomized to treatment groups according to their glucose intolerance (AUC calculation during an oral glucose tolerance test (OGTT)) and their HOMA-IR (insulin resistance index).
Body weight and food consumption were measured 3 times per week until 10 days of treatment. HOMA-IR was measured on day 10 and 15. A 2-step clamp (5 mU/kg/min and then 15 mU/kg/min insulin) was performed on day 15 or 16. Glucose Turnover (GTO) was assessed using ^3H-glucose tracer infusion during the clamp procedure.
Ab14 (10, 30, 100 mg/kg) and the vehicle were weekly administered via i.v. route (via the caudal vein, under isoflurane anaesthesia), in the morning, on day 1 and day 8 of treatment.
Body weight was measured once a week during the first six week of HFD. Body weight was measured 3 times per week during the first 10 days of treatment. Food consumption was measured over 48 h or 72 h, just before treatment and 3 times per week during treatment until surgery procedure (day 11).

[1] = system: Zucker diabetic fatty (ZDF) rat; assay: Fructosamine and HbA1c in ZDF rats (Example 3); format: in vivo; conditions: metformin 200 mg/kg/day, vs vehicle ZDF
Procedure: For the groups treated with AB14, the antibody was administered once weekly via the caudal vein (i.v., 5 mL/kg) on days 1, 8, 15, and 22 at two different doses 20 mg/kg/week (groups 3 and 7) or 60 mg/kg/week (groups 4 and 8). All other groups were treated once weekly with vehicle 1 (i.v., 5 mL/kg). The intravenous treatments were performed in the morning on day 1, 8, 15, and 22 while under isoflurane anaesthesia. The volume of administration was individually adapted according to the most recent body weight.
All other groups were treated daily with vehicle 2 (p.o., 5 mL/kg) for 28 days. The most recent body weight was used to calculate the average volume of administration in each group.
Fasting blood glucose (glucometers) was measured on days 0, 12, 19, and 26. Fasting plasma insulin, peptide-C (ELISA method), free fatty acids, triglycerides, total cholesterol (colorimetric method), and HDL-cholesterol (phosphotungstate precipitation, colorimetric method) were measured on day 0, and prior to dosing on days 12, 19, and day 26. Non HDL-cholesterol was calculated as total cholesterol—HDL-cholesterol. Fructosamine was measured on days 0, 19 and 28. HbA1c (DCA 2000) was measured on days 0 and 28.

Normal rats [2] = assay: Blood glucose, plasma insulin and HOMA-IR before clamp in normal rats (Example 1); format: in vivo, rat; conditions: vs vehicle
Procedure: The antibody used in this example consisted of the light and heavy polypeptide chains of SEQ ID NOs 132 and 134.
Blood glucose (BG) was measured between 07:30 and 08:00 (just before the light off) am from the tip of the tail with glucometer and a blood collection (on EDTA) was performed just after to measure plasma insulin. The table below describes the conditions:
Plasma samples were kept at −80° C. until insulin measurement (using ELISA method).
Vehicle and Ab14 were administered by i.v. route 48 h before the T0 of clamp procedure (at 02:00 pm two days before the clamp).
The rats were fasted 6 hours before the start of the clamp (at ˜8 h, just after the blood collection).

[3] = system: Zucker diabetic fatty (ZDF) rat; assay: Pancreas insulin and proinsulin content in ZDF rats (Example 3); format: in vivo; conditions: day 28, AB14 60 mg/kg, metformin 200 mg/kg/day, alone or combined, vs vehicle
Procedure: After 2 hours of food restriction (from 8:00 am to 10:00 am) 80 rats from the study were anesthetized on day 28 with isoflurane. Blood was collected (˜3000 μL from abdominal vein, on K2-EDTA) for the determination of AB14 plasma concentrations. Plasma (3 aliquots of ˜200 μL) was kept at −80° C. until testing. The pancreas tissue was then excised. Rats were euthanized by incision of the abdominal vein and aorta.
Each pancreas was divided into 2 parts (longitudinal cut).
Each pancreas sample was homogenized in an acid buffer, and insulin and proinsulin content were measured using ELISA kits in the following groups: […]

[4] = system: Zucker diabetic fatty (ZDF) rat; assay: Oral glucose tolerance test on day 26 in ZDF rats (Example 3); format: in vivo
Procedure: The oral glucose tolerance test (OGTT) was performed as follows. On day 25, rats were fasted at ˜6:00 pm and an oral glucose tolerance test was performed the day after (on day 26). At ˜8:00 am (T-60) a blood collection (110 μL, EDTA) was performed for biochemical parameters measurements. One hour after (˜09:00 am), an oral glucose bolus (1.5 g/kg) was administered (T0). Blood glucose was measured (glucometer or colorimetric method in case of high glycaemia) on T-60, T0, T15, T30, T60, T90, T120, and T180 minutes. Area under the curve (AUC) was calculated based on the blood glucose values measured at T0. Plasma insulin and C-peptide were measured (ELISA method) on T-60, T15 (·40 μL of blood, EDTA), and T30 minutes (·40 μL of blood, EDTA).

Normal rats [5] = assay: Individual tissue glucose utilization rate (14C-2-DOG) during clamp in normal rats (Example 1); format: in vivo, rat; conditions: Ab14 100 mg/kg i.v., metformin 500 mg/kg p.o., vs vehicle
Procedure: To determine the individual tissue glucose utilization rate, a bolus injection of 100 μCi per rat of deoxy-D-glucose 2-^14C (^14C-2-DOG) through the femoral vein was performed 60 min before the end of the D-[3-^3H]-glucose infusion. Plasma ^14C-2-DOG disappearance and glucose concentration were determined in 10 μL drops of blood sampled from the tip of the tail vein at 0, 5, 10, 15, 20, 25, 30, 45, and 60 minutes after the injection. At the end of the experiment, vastus lateralis (VL), extensor digitorum longus (EDL) and soleus muscles, epididymal and inguinal white adipose tissues, heart apex, and skin (as negative control) were dissected, flash frozen and kept at −80° C. A piece of each tissue was dissolved in 1M NaOH and then neutralized with 1M HCl. […]. D-2-^14C deoxyglucose was differentially precipitated by the use of a zinc hydroxide (0.3M) solution or a perchloric acid solution (6%). Both radioactivity contents were measured to evaluate the glucose uptake expressed as ng/mg/min.

[6] = Ab14 10, 30, 100 mg/kg/week i.v., metformin 200 mg/kg/day

CN(C)C(=N)N=C(N)N [metformin, reference compound]
body weight (HFD rats; 10 days of treatment, Ab14 10, 30, 100 mg/kg/week i.v., metformin 200 mg/kg/day): significantly decreased | body weight gain (HFD rats; Ab14 30 mg/kg, metformin 200 mg/kg): significantly decreased | decrease of cumulative food consumption (HFD rats; [6]): 25% | food consumption (follow-up food intake) (HFD rats; [6]): significantly decreased | decrease of HbA1c ([1]; 28 days, pioglitazone 10 mg/kg/day): 15% | reduction of fructosamine levels ([1]; day 19, pioglitazone 10 mg/kg/day): 6% | blood glucose in fed conditions (Normal rats [2]; fed, 42 h after Ab14 100 mg/kg i.v., 18 h after metformin 500 mg/kg p.o.): did not affect; also recorded: not affected | decrease of plasma insulin level in fed condition (Normal rats [2]; fed, 42 h after Ab14 100 mg/kg i.v., 18 h after metformin 500 mg/kg p.o., not significant): 18% | decrease of blood glucose in 6 hours fasting condition, just before clamp (Normal rats [2]; metformin 500 mg/kg p.o.): 17% | pancreas proinsulin levels [3]: completely prevented reductions | pancreatic insulin levels [3]: significantly increased | plasma insulin and C-peptide levels 15 and 30 minutes after the glucose load ([4]; day 26, metformin 200 mg/kg/day, pioglitazone 10 mg/kg/day, vs vehicle): slightly increased | reduction in blood glucose AUC (OGTT) ([4]; day 26, pioglitazone 10 mg/kg/day, metformin 200 mg/kg/day, vs vehicle ZDF): 6% | change of glucose utilization in the heart (Normal rats [5]): −39% | glucose utilization rate in white adipose tissues (deep and subcutaneous) (Normal rats [5]): did not affect | increase of glucose utilization in mixed vastus lateralis muscle (VL) (Normal rats [5]): 49% | increase of glucose utilization in glycolytic extensor digitorum longus muscle (EDL) (Normal rats [5]; NS): 19%
